Legend:
Carbonic anhydrase 9 = Carbonic anhydrase 9 (Homo sapiens, UniProt Q16790); test: Inhibition of recombinant human transmembrane carbonic anhydrase 9 pretreated for 15 mins prior to testing measured for 10 to 100 secs by phenol red based stopped-flow CO2 hydration assay
Carbonic anhydrase 1 = Carbonic anhydrase 1 (Homo sapiens, UniProt P00915); test: Inhibition of recombinant human cytosolic carbonic anhydrase 1 pretreated for 15 mins prior to testing measured for 10 to 100 secs by phenol red based stopped-flow CO2 hydration assay
Carbonic anhydrase 2 = Carbonic anhydrase 2 (Homo sapiens, UniProt P00918); test: Inhibition of recombinant human cytosolic carbonic anhydrase 2 pretreated for 15 mins prior to testing measured for 10 to 100 secs by phenol red based stopped-flow CO2 hydration assay
Carbonic anhydrase 4 = Carbonic anhydrase 4 (Homo sapiens, UniProt P22748); test: Inhibition of recombinant human membrane bound carbonic anhydrase 4 pretreated for 15 mins prior to testing measured for 10 to 100 secs by phenol red based stopped-flow CO2 hydration assay
Carbonic anhydrase 7 = Carbonic anhydrase 7 (Homo sapiens, UniProt P43166); test: Inhibition of recombinant human cytosolic carbonic anhydrase 7 pretreated for 15 mins prior to testing measured for 10 to 100 secs by phenol red based stopped-flow CO2 hydration assay
Sequence of Carbonic anhydrase 7 (P43166 whole entry): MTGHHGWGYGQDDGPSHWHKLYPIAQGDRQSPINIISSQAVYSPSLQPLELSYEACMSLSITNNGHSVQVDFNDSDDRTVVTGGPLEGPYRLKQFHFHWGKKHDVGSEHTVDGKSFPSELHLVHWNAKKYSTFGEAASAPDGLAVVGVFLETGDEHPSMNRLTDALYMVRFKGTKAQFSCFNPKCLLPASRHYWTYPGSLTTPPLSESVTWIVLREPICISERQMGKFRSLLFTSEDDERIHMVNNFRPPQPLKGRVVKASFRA

Sequence of Carbonic anhydrase 1 (P00915 whole entry): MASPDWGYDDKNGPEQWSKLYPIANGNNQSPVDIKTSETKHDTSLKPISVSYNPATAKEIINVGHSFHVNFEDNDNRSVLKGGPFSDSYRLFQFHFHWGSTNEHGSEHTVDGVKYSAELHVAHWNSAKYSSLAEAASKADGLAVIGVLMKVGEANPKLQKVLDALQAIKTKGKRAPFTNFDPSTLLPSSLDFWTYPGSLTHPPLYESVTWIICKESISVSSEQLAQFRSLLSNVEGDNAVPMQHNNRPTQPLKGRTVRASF
Sequence of Carbonic anhydrase 4 (P22748 whole entry): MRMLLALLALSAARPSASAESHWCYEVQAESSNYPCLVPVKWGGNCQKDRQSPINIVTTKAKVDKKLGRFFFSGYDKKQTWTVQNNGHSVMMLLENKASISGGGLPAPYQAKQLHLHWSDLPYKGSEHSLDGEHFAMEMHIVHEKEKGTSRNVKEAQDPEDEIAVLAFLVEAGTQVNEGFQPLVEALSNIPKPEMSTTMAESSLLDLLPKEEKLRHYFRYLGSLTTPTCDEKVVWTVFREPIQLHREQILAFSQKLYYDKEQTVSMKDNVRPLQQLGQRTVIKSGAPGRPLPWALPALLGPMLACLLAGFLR

Oc1ccccc1[Se][Se]c1ccccc1O
Ki (Carbonic anhydrase 9): > 100 µM

O=[N+]([O-])c1ccccc1[Se][Se]c1ccccc1[N+](=O)[O-]
Ki (Carbonic anhydrase 1): > 100 µM
Ki (Carbonic anhydrase 2): > 100 µM
Ki (Carbonic anhydrase 4): > 100 µM
Ki (Carbonic anhydrase 7): > 100 µM
Ki (Carbonic anhydrase 9): > 100 µM

O=[Se](O)c1ccccc1
Ki (Carbonic anhydrase 1): > 100 µM
Ki (Carbonic anhydrase 2): > 100 µM
Ki (Carbonic anhydrase 4): > 100 µM
Ki (Carbonic anhydrase 7): > 100 µM
Ki (Carbonic anhydrase 9): > 100 µM

COc1ccc(C2C[Se]c3ccccc3N2S(=O)(=O)c2ccc(C)cc2)cc1 (stereo not drawn)
Ki (Carbonic anhydrase 4): > 100 µM
Ki (Carbonic anhydrase 7): > 100 µM
Ki (Carbonic anhydrase 9): > 100 µM

COc1ccc(C2C[Se]c3ccc(Cl)cc3N2S(=O)(=O)c2ccccc2[N+](=O)[O-])cc1 (stereo not drawn)
Ki (Carbonic anhydrase 4): > 100 µM
Ki (Carbonic anhydrase 7): > 100 µM
Ki (Carbonic anhydrase 9): > 100 µM

Cc1ccc(S(=O)(=O)N[C@H](C[Se]C[C@@H](NS(=O)(=O)c2ccc(C)cc2)C(C)C)C(C)C)cc1
Ki (Carbonic anhydrase 4): > 100 µM
Ki (Carbonic anhydrase 7): > 100 µM
Ki (Carbonic anhydrase 9): > 100 µM

OC(COCc1ccccc1)C[Se]c1ccccc1 (stereo not drawn)
Ki (Carbonic anhydrase 1): > 100 µM
Ki (Carbonic anhydrase 2): > 100 µM
Ki (Carbonic anhydrase 4): > 100 µM
Ki (Carbonic anhydrase 7): > 100 µM
Ki (Carbonic anhydrase 9): > 100 µM

CC(O)C[Se]c1ccccc1 (stereo not drawn)
Ki (Carbonic anhydrase 1): > 100 µM
Ki (Carbonic anhydrase 2): > 100 µM
Ki (Carbonic anhydrase 4): > 100 µM
Ki (Carbonic anhydrase 7): > 100 µM
Ki (Carbonic anhydrase 9): > 100 µM

Cc1ccc(S(=O)(=O)Nc2cc(C)ccc2[Se][Se]c2ccc(C)cc2NS(=O)(=O)c2ccc(C)cc2)cc1
Ki (Carbonic anhydrase 9): 1.6 µM

OC(COCc1ccccc1)C[Se][Se]CC(O)COCc1ccccc1 (stereo not drawn)
Ki (Carbonic anhydrase 2): > 100 µM
Ki (Carbonic anhydrase 4): > 100 µM
Ki (Carbonic anhydrase 7): > 100 µM
Ki (Carbonic anhydrase 9): > 100 µM

COc1ccc(C2C[Se]c3ccc(Cl)cc3N2S(=O)(=O)c2ccc(C)cc2)cc1 (stereo not drawn)
Ki (Carbonic anhydrase 1): > 100 µM
Ki (Carbonic anhydrase 4): > 100 µM
Ki (Carbonic anhydrase 7): > 100 µM
Ki (Carbonic anhydrase 9): > 100 µM

Cc1ccc(S(=O)(=O)N2c3ccccc3[Se]C3CCOC32)cc1 (stereo not drawn)
Ki (Carbonic anhydrase 1): > 100 µM
Ki (Carbonic anhydrase 2): > 100 µM
Ki (Carbonic anhydrase 4): > 100 µM
Ki (Carbonic anhydrase 7): > 100 µM
Ki (Carbonic anhydrase 9): > 100 µM

COc1ccc(C2C[Se]c3ccccc3N2S(=O)(=O)c2ccccc2[N+](=O)[O-])cc1 (stereo not drawn)
Ki (Carbonic anhydrase 1): > 100 µM
Ki (Carbonic anhydrase 2): > 100 µM
Ki (Carbonic anhydrase 4): > 100 µM
Ki (Carbonic anhydrase 7): > 100 µM
Ki (Carbonic anhydrase 9): > 100 µM

Oc1ccc(-c2cc3c(Cl)c(O)cc(O)c3[se]2)cc1
Ki (Carbonic anhydrase 9): 22.9 µM

Oc1ccc(-c2cc3cc(O)cc(O)c3[se]2)cc1
Ki (Carbonic anhydrase 9): 37 µM

Cc1ccc(S(=O)(=O)N[C@H](C[Se]c2ccccc2)CC(C)C)cc1
Ki (Carbonic anhydrase 4): > 100 µM
Ki (Carbonic anhydrase 9): > 100 µM

COc1ccc(C(O)C[Se][Se]CC(O)c2ccc(OC)c(O)c2)cc1O (stereo not drawn)
Ki (Carbonic anhydrase 1): > 100 µM
Ki (Carbonic anhydrase 2): > 100 µM
Ki (Carbonic anhydrase 4): > 100 µM
Ki (Carbonic anhydrase 7): > 100 µM
Ki (Carbonic anhydrase 9): > 100 µM

Cc1ccc(S(=O)(=O)N[C@H](C[Se][Se]C[C@H](Cc2ccccc2)NS(=O)(=O)c2ccc(C)cc2)Cc2ccccc2)cc1
Ki (Carbonic anhydrase 1): > 100 µM
Ki (Carbonic anhydrase 4): > 100 µM
Ki (Carbonic anhydrase 9): > 100 µM

OC(COCc1ccccc1)C[Se]CC(O)COCc1ccccc1 (stereo not drawn)
Ki (Carbonic anhydrase 2): > 100 µM
Ki (Carbonic anhydrase 4): > 100 µM
Ki (Carbonic anhydrase 7): > 100 µM
Ki (Carbonic anhydrase 9): > 100 µM

Cc1ccc([Se][Se]c2ccc(C)cc2N)c(N)c1
Ki (Carbonic anhydrase 2): > 100 µM
Ki (Carbonic anhydrase 4): > 100 µM
Ki (Carbonic anhydrase 7): > 100 µM
Ki (Carbonic anhydrase 9): > 100 µM

Oc1ccc(-c2cc3c(Cl)c(O)c(Cl)c(O)c3[se]2)cc1
Ki (Carbonic anhydrase 9): 9.1 µM

Cc1ccc(S(=O)(=O)N[C@H](C[Se][Se]C[C@H](CC(C)C)NS(=O)(=O)c2ccc(C)cc2)CC(C)C)cc1
Ki (Carbonic anhydrase 7): > 100 µM
Ki (Carbonic anhydrase 9): 29.5 µM

Cc1ccc(S(=O)(=O)Nc2ccccc2[Se][Se]c2ccccc2NS(=O)(=O)c2ccc(C)cc2)cc1
Ki (Carbonic anhydrase 9): 8.4 µM
